“Also recorded” adds a separate entry of the source.

Series [1] concerns Axin2 and cyclin D1 in SW480 and Wnt 3a-activated MDA-MB-231 cells. The series is described as follows: Western blot of Wnt target proteins. Particulars: SW480 and Wnt 3a-activated MDA-MB-231, 24 h. The format is cell-based, human. (A western blot detects proteins with antibodies after separation by electrophoresis.)
The subject of series [2] is TNBC cells. Briefly: Clonogenic assay. The class given is cell-based.
Series [3] concerns normal mammary epithelial MCF10A cells. The series is described as follows: FACS annexin V/PI apoptosis, normal cells. The format is cell-based, human. The following applies: 72 h treatment.
The nature of series [4]: Hepatic microsome stability, human. The class given is in vitro ADME. Particulars: liver microsomes, pH 7.4.
Series [5] in a line: Hepatic microsome stability, mouse. The format is in vitro ADME. Particulars: liver microsomes, pH 7.4. Background: Microsomes from liver hold many membrane-bound enzymes, among them those of drug oxidation.
Series [6] is described as follows: Mouse PK study. The format is in vivo, C57BL/6 mice. The following applies: p.o., 20 mg/kg.
The subject of series [7] is MDA-MB-231 cells. The series is described as follows: Scratch wound healing assay. The format is cell-based. The following applies: 10% serum, mitomycin 10 μg/mL.
Series [8] has as its system MDA-MB-231 cells. The series is described as follows: 3D spheroid BME cell invasion assay. The format is cell-based. Particulars: day 6.
The subject of series [9] is PDX 4013 tumors. Briefly: PDX 4013 TNBC xenograft, tumor growth and tolerability. Particulars: 90 mg/kg orally daily in saline, 5 days.
The target in series [10] is T1, β-catenin/BCL9 PPI (Homo sapiens, UniProt P35222).
T1 sequence (P35222 1-781): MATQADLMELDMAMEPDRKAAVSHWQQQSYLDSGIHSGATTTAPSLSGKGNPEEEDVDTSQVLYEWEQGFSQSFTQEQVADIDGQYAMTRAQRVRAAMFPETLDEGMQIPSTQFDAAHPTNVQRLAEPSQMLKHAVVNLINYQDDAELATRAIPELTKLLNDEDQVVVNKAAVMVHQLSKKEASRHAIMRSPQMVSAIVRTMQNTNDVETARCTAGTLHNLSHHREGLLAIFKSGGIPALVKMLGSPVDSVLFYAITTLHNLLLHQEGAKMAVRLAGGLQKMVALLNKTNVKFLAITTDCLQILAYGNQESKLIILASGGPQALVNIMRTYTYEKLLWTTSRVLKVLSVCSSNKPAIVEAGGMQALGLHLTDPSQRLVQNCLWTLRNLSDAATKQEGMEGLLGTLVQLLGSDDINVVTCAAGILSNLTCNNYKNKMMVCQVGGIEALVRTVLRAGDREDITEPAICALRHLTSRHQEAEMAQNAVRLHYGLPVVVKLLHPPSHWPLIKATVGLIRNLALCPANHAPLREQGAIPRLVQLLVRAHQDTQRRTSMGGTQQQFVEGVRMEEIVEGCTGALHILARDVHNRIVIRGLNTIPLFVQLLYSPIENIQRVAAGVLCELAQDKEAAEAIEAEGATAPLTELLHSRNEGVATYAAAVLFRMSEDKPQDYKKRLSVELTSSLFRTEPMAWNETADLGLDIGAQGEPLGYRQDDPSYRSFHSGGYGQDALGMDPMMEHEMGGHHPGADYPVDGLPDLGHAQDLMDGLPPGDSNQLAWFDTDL
The series is described as follows: AlphaScreen competitive inhibition assay of the β-catenin/BCL9 PPI. The format is binding. Particulars: for fold less potent than ZW4864 (β-catenin/BCL9 Ki): compared with ZW4864. Background: Bead proximity is the source of the signal in Alpha formats.

For series [11], the target named is T2, purified full-length β-catenin (Homo sapiens, UniProt P35222).
T2 sequence (P35222 1-781): T1 sequence (P35222 1-781)
Briefly: Streptavidin pull-down with purified protein. The format is binding. Particulars: Western blot, from 1 μM.

In series [12] the target is T3, β-catenin in SW480 cell lysates (Homo sapiens, UniProt P35222).
T3 sequence (P35222 1-781): T1 sequence (P35222 1-781)
The series is described as follows: Streptavidin pull-down from cell lysates. The format is binding. The following applies: 10 μM.

The target in series [13] is T4, β-catenin R1C (residues 138–781) (Homo sapiens, UniProt P35222).
T4 sequence (P35222 138-781): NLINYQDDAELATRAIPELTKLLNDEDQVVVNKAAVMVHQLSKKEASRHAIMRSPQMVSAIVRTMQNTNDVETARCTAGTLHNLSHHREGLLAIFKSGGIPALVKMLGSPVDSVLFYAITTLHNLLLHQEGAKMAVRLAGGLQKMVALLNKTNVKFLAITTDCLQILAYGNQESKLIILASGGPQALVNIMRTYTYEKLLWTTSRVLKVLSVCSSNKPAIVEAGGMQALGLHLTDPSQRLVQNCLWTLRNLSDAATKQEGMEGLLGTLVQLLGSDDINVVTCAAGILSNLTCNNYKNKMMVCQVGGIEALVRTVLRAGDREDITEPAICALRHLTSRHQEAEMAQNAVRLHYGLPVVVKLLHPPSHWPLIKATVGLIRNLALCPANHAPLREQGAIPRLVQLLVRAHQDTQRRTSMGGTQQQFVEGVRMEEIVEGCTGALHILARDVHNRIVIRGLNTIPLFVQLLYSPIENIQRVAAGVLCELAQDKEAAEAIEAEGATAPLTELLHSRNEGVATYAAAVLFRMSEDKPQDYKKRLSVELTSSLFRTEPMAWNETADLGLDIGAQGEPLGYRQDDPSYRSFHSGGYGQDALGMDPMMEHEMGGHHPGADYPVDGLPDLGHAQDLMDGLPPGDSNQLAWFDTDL
The series is described as follows: Streptavidin pull-down with β-catenin truncate. The class given is binding.

In series [14] the target is BCL9 HD2 (Homo sapiens) (UniProt O00512). The following applies: cited from earlier work.
BCL9 HD2 (Homo sapiens), sequence (O00512 351-374): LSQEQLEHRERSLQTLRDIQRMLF
In series [15] the test system is β-catenin-expressing HEK293 cells. The series is described as follows: TOPFlash luciferase reporter assay, HEK293. The format is cell-based. Particulars: 200 μM, 24 h.

Turning to `CC(C)(Oc1cccc(N2CCC[C@@H](C(=O)N(Cc3ccc(-c4cn[nH]c4)cc3)C3CC3)C2)c1)C(=O)N1CCNCC1.Cl` [ZW4864, (R)-N-(4-(1H-Pyrazol-4-yl)benzyl)-N-cyclopropyl-1-(3-((2-methyl-1-oxo-1-(piperazin-1-yl)propan-2-yl)oxy)phenyl)piperidine-3-carboxamide], the “expression of proteins Axin2 and cyclin D1 (Western blot)” value in series [1] was “substantially decreased”. In addition, the colony formation entry in series [2] is “inhibited colony formation”. In addition, the “apoptosis (FACS annexin V/PI)” value in series [3] is given as “sparing normal mammary epithelial MCF10A cells”. Besides, the microsomal CLint (usually a measure of how fast metabolising enzymes remove a compound, apart from limits set by blood flow) at 1 μM in [4] was determined as 18 µL/min/mg. The half-life – broadly, the time needed for the level to fall by half in the phase considered – at 1 μM in series [5] was 9.6 min. This compound displayed a CL in [6] of 51.10 mL/min/kg. Moreover, the MDA-MB-231 cell migration entry in series [7] is listed as “suppressed MDA-MB-231 cell migration in a dose-dependent manner”. For the same compound, in [8], the “3D spheroid cell invasion” value is recorded as “suppressed MDA-MB-231 cell invasion in a dose-dependent manner”. In series [9], the “body weight and toxicity” value is reported as “no significant decrease in weight or major toxicity issues”; the “tumor growth compared with vehicle” value is “a variation in tumor growth”.

With `CCOCCN(Cc1ccc(-c2cn[nH]c2)cc1)C(=O)[C@@H]1CCCN(c2cccc(OC(C)(C)C(=O)N3CCNCC3)c2)C1.Cl` [compound 22, (R)-N-(4-(1H-Pyrazol-4-yl)benzyl)-N-(2-ethoxyethyl)-1-(3-((2-methyl-1-oxo-1-(piperazin-1-yl)propan-2-yl)oxy)phenyl)piperidine-3-carboxamide], the “inhibitory affinity for β-catenin/BCL9 PPI, in words” value in series [10] (AlphaScreen, values only in Figure 2B) is “maintained low μM inhibitory affinities”.

For `CC(C)(Oc1cccc(N2CCC[C@@H](C(=O)N(CCOCCOCCNC(=O)CCCC[C@@H]3SC[C@@H]4NC(=O)N[C@@H]43)Cc3ccc(-c4cn[nH]c4)cc3)C2)c1)C(=O)N1CCNCC1` [Biotin-ZW4864, (R)-N-(4-(1H-Pyrazol-4-yl)benzyl)-1-(3-((2-methyl-1-oxo-1-(piperazin-1-yl)propan-2-yl)oxy)phenyl)-N-(2-(2-(2-(5-((3aS,4S,6aR)-2-oxohexahydro-1H-thieno[3,4-d]imidazol-4-yl)pentanamido)ethoxy)ethoxy)ethyl)piperidine-3-carboxamide], in series [11], the “pull-down of purified full-length β-catenin” value is given as “bound with the purified full-length β-catenin in a concentration-dependent manner starting at 1 μM; also recorded: pulled down the full-length β-catenin at 1 μM”. Moreover, the “binding to β-catenin in SW480 cell lysates” value in [12] was “effectively bind with β-catenin in SW480 cell lysates”. In addition, the “pull-down of β-catenin R1C” value in series [13] (10 μM) was “did not pull down β-catenin R1C”; in series [13] (50 μM), “pulled down β-catenin R1C”.

Turning to beta-catenin (from UniProt P35222), the Kd (in general, the concentration at which binding is half-saturated) in series [14] was 470 nM.

Regarding `CC(C)c1ccc(CN(C(=O)[C@@H]2CCCN(c3cccc(OC(C)(C)C(=O)N4CCNCC4)c3)C2)C2CC2)cc1.Cl` [compound 7, (R)-N-Cyclopropyl-N-(4-isopropylbenzyl)-1-(3-((2-methyl-1-oxo-1-(piperazin-1-yl)propan-2-yl)oxy)phenyl)piperidine-3-carboxamide], the “fold more potent than 3 (β-catenin/BCL9 Ki)” value in series [10] (compared with 3) is recorded as 2 fold.

`CCN(Cc1ccc(-c2cn[nH]c2)cc1)C(=O)[C@@H]1CCCN(c2cccc(OC(C)(C)C(=O)N3CCNCC3)c2)C1.Cl` [compound 21, (R)-N-(4-(1H-Pyrazol-4-yl)benzyl)-N-ethyl-1-(3-((2-methyl-1-oxo-1-(piperazin-1-yl)propan-2-yl)oxy)phenyl)piperidine-3-carboxamide] displayed a microsomal CLint at 1 μM in series [4] of 24 µL/min/mg. In addition, the half-life at 1 μM in series [5] was 7.7 min.

Turning to `CC(C)(Oc1cccc(N2CCC[C@@H](C(=O)N(Cc3ccc(-c4ccn[nH]4)cc3)C3CC3)C2)c1)C(=O)N1CCNCC1.Cl` [compound 17, (R)-N-(4-(1H-Pyrazol-5-yl)benzyl)-N-cyclopropyl-1-(3-((2-methyl-1-oxo-1-(piperazin-1-yl)propan-2-yl)oxy)phenyl)piperidine-3-carboxamide], the “fold less potent than ZW4864 (β-catenin/BCL9 Ki)” value in series [10] turned out to be 10 fold.

In the case of `CN1CCN(C(=O)C(C)(C)Oc2cccc(N3CCC[C@@H](C(=O)N(Cc4ccc(-c5cn[nH]c5)cc4)C4CC4)C3)c2)CC1` [compound 19, (R)-N-(4-(1H-Pyrazol-4-yl)benzyl)-N-cyclopropyl-1-(3-((2-methyl-1-(4-methylpiperazin-1-yl)-1-oxopropan-2-yl)oxy)phenyl)piperidine-3-carboxamide], in series [15], the “TOPFlash luciferase activity, in words” value is given as “did not show any activity”.

Take `Cl.Cn1cc(-c2ccc(CN(C(=O)[C@@H]3CCCN(c4cccc(OC(C)(C)C(=O)N5CCNCC5)c4)C3)C3CC3)cc2)cn1` [compound 18, (R)-N-Cyclopropyl-1-(3-((2-methyl-1-oxo-1-(piperazin-1-yl)propan-2-yl)oxy)phenyl)-N-(4-(1-methyl-1H-pyrazol-4-yl)benzyl)piperidine-3-carboxamide]: in [10], the “fold less potent than ZW4864 (β-catenin/BCL9 Ki)” value turned out to be 89 fold.

(Values after paper PMC8817233 (Journal of medicinal chemistry, 2021).)
